According to patent US10294227B2, “Compounds” (UNIVERSITY COURT OF THE UNIVERSITY OF EDINBURGH, priority 2015, dated 2019):
Read-outs that look alike come from different tables or passages of the source.

Key:
MDA-MB-231 cells = experiment: Cell viability assay (PrestoBlue); type: cell-based; details: Homo sapiens, MDA-MB-231, 120 h, read-out: Antiproliferative activity (EC50) MDA-MB-231; cell viability at day 5
MCF7 cells = experiment: Cell viability assay (PrestoBlue); type: cell-based; details: Homo sapiens, MCF7, 120 h; cell viability at day 5; read-out: Antiproliferative activity (EC50) MCF7
[1] = test system: SYF fibroblasts (deficient for Src, Yes, and Fyn); experiment: Cell viability assay (PrestoBlue); type: cell-based, murine; details: Mus musculus, Fibroblast, 120 h; cell viability at day 5; read-out: Antiproliferative activity (EC50) SYF (−/− Src)
ABL = ABL (Homo sapiens (Human), UniProt P00519); experiment: Kinase screening assay (IC50); type: biochemical; details: 10 μM ATP; read-out: Target inhibition (IC50) ABL
ABL, sequence (P00519 whole entry): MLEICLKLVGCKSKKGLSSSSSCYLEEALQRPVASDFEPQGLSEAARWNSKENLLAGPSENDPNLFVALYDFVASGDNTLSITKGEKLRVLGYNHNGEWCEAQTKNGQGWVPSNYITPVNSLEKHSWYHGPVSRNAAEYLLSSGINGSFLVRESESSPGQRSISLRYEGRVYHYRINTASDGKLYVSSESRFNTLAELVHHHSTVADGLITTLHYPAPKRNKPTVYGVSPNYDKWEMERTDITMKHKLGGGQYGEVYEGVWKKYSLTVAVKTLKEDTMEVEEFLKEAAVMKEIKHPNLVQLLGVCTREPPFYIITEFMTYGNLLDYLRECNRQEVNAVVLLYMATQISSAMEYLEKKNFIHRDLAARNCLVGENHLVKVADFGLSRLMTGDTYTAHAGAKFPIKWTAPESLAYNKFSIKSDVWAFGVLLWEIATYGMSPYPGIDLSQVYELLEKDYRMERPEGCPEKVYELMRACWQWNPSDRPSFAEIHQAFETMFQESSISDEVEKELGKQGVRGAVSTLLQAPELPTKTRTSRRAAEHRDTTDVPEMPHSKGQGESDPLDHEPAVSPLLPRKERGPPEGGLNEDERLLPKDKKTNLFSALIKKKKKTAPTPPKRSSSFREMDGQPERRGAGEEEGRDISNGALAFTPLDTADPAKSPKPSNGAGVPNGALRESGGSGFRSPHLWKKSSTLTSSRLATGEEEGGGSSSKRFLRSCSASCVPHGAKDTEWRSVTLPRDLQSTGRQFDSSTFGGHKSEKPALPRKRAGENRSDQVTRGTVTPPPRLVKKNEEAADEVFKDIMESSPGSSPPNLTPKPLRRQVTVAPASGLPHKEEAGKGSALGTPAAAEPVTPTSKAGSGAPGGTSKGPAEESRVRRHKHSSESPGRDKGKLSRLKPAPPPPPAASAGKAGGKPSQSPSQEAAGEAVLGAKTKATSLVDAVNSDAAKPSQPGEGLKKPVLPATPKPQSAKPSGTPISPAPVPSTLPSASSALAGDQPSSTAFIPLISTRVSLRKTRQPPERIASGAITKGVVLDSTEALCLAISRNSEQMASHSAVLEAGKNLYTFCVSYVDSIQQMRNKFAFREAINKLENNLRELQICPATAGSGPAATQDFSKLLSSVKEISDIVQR

mTOR = mTOR (Homo sapiens (Human), UniProt P42345); experiment: Kinase screening assay (IC50); type: biochemical; details: 10 μM ATP; read-out: Target inhibition (IC50) mTOR
PDGFRa = PDGFRa (Homo sapiens (Human), UniProt P16234); experiment: Kinase screening assay (IC50); type: biochemical; details: 10 μM ATP; read-out: Target inhibition (IC50) PDGFRa
PDGFRa, sequence (P16234 24-1089): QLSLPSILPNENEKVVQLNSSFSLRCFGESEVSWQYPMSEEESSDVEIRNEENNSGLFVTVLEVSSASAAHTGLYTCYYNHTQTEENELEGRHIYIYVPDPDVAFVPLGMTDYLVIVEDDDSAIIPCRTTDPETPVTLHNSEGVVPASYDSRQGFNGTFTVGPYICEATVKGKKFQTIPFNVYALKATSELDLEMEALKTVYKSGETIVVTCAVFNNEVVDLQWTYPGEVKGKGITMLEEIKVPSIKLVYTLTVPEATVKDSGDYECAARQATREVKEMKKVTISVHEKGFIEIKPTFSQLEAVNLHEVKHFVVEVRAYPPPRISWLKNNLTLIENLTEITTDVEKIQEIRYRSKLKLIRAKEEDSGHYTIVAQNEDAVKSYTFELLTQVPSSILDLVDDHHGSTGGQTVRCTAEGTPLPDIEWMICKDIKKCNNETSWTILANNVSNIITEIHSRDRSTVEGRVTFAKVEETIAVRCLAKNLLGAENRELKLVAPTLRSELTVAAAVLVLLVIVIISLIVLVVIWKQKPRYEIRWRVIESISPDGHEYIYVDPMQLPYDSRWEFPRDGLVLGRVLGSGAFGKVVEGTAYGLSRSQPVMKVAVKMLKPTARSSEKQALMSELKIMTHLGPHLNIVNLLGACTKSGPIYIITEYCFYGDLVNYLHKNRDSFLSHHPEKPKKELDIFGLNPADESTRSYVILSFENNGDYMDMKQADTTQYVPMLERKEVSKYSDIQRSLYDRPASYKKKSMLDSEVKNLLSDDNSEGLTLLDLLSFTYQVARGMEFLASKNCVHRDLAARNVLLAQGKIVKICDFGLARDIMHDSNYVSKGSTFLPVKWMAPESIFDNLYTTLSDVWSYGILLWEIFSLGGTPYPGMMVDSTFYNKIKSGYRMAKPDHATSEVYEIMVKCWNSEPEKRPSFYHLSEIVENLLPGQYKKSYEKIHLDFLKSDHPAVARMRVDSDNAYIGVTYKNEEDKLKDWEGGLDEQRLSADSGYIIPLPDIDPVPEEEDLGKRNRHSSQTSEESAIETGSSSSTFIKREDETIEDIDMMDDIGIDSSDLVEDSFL

KIT = KIT (Homo sapiens (Human), UniProt P10721); experiment: Kinase screening assay (IC50); details: read-out: Target inhibition (IC50) KIT; 10 μM ATP
RET = RET (Homo sapiens (Human), UniProt P07949); experiment: Kinase screening assay (IC50); details: read-out: Target inhibition (IC50) RET; 10 μM ATP
RET, sequence (P07949 29-1114): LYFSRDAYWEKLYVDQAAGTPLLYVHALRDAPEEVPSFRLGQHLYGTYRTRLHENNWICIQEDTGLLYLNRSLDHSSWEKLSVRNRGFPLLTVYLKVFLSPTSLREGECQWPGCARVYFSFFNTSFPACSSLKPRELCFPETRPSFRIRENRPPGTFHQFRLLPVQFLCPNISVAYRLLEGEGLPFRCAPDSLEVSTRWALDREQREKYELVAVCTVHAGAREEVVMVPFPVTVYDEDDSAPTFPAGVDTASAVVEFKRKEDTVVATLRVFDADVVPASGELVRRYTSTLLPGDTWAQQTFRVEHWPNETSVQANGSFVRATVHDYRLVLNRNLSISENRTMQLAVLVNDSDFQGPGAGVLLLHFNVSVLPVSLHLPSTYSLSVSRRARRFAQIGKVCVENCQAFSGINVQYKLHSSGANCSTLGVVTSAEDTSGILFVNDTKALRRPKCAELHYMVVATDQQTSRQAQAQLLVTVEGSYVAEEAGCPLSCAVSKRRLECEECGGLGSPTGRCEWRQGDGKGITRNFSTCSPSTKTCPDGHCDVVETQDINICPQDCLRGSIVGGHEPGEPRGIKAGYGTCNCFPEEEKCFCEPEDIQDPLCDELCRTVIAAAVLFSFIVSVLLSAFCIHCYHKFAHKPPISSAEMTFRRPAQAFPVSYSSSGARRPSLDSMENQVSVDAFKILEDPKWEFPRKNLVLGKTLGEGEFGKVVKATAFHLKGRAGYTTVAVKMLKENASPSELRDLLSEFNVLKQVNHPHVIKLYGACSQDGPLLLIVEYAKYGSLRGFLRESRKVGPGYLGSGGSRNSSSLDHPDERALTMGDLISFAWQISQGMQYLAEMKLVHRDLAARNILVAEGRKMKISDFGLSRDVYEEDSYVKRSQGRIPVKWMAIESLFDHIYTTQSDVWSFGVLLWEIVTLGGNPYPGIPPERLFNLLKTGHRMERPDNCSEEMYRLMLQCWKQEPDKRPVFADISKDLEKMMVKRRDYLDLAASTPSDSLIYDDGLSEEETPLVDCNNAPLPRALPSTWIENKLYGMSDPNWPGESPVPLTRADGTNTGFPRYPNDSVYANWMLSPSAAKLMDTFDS

FGR = FGR (Homo sapiens (Human), UniProt P09769); experiment: Kinase screening assay (IC50)
FRK/PTK5 = FRK/PTK5 (Homo sapiens (Human), UniProt P42685); experiment: Kinase screening assay (IC50); details: read-out: Target inhibition (IC50) FRK/PTK5; 10 μM ATP
FRK/PTK5, sequence (P42685 whole entry): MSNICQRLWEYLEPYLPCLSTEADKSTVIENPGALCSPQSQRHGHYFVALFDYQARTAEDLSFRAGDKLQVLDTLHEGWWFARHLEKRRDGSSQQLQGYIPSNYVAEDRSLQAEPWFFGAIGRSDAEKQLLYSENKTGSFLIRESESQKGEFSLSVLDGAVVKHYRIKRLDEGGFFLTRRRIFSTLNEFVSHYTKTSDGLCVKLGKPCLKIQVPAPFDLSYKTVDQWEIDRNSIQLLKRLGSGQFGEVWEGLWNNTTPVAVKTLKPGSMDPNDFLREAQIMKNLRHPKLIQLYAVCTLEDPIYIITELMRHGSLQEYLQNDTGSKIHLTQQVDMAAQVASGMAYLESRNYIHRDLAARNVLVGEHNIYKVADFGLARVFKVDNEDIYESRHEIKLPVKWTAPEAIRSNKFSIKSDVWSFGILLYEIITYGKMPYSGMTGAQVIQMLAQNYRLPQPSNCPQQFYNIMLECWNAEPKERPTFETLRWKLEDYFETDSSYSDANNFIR

LCK = LCK (Homo sapiens (Human), UniProt P06239); experiment: Kinase screening assay (IC50)
LCK, sequence (P06239 whole entry): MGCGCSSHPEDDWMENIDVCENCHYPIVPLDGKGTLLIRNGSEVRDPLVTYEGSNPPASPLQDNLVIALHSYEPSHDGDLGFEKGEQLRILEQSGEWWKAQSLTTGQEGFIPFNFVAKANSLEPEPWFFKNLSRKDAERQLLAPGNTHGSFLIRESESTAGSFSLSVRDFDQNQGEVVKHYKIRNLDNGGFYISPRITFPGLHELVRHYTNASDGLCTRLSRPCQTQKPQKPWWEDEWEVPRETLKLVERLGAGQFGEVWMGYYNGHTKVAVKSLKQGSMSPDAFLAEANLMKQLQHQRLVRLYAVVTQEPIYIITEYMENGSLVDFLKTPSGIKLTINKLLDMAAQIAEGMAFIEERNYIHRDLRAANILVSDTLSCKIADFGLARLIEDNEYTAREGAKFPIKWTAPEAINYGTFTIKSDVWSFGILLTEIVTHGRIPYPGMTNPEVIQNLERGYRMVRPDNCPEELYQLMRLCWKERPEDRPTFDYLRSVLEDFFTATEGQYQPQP

HCK = HCK (Homo sapiens (Human), UniProt P08631); experiment: Kinase screening assay (IC50); details: read-out: Target inhibition (IC50) HCK; 10 μM ATP
LYN = LYN (Homo sapiens (Human), UniProt P07948); experiment: Kinase screening assay (IC50); details: read-out: Target inhibition (IC50) LYN; 10 μM ATP
LYN, sequence (P07948 whole entry): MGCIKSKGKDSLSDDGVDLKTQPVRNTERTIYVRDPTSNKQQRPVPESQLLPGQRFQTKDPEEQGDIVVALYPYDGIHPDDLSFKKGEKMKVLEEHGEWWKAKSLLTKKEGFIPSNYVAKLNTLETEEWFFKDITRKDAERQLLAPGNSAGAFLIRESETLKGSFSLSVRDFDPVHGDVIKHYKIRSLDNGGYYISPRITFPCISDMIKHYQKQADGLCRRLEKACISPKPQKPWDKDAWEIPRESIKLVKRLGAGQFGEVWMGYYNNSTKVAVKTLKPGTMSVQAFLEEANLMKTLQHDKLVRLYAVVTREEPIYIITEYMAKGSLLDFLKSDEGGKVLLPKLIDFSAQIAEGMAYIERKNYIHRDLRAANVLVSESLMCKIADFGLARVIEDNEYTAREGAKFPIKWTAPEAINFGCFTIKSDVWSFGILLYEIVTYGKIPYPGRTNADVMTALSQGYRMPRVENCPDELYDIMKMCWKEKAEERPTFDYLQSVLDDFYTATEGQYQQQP

BLK = BLK (Homo sapiens (Human), UniProt P51451); experiment: Kinase screening assay (IC50); details: read-out: Target inhibition (IC50) BLK; 10 μM ATP
[2] = read-out: Target inhibition (IC50) LCK, 10 μM ATP

SMILES	EC50 (MDA-MB-231 cells) [nM]	EC50 (MCF7 cells) [nM]	IC50 (mTOR) [nM]	IC50 (PDGFRa) [nM]	IC50 (KIT) [nM]	other results
COc1cc(-c2nn(CCN3CCC(OC)CC3)c3ncnc(N)c23)ccc1NC(=O)OC(C)(C)C [Compound 593, tert-butyl N-[4-[4-amino-1-[2-(4-methoxy-1-piperidyl)ethyl]pyrazolo[3,4-d]pyrimidin-3-yl]-2-methoxy-phenyl]carbamate]	1000 to 10000	–	–	–	–	–
COc1cc(-c2nn(CCN3CCC(N(C)C)CC3)c3ncnc(N)c23)ccc1NC(=O)CC(C)(C)C [Compound 526, N-[4-[4-amino-1-[2-[4-(dimethylamino)-1-piperidyl]ethyl]pyrazolo[3,4-d]pyrimidin-3-yl]-2-methoxy-phenyl]-3,3-demethyl-butanamide]	–	–	> 1000	> 1000	> 1000	IC50 (ABL): > 1000 nM; IC50 (RET): > 1000 nM; IC50 (FGR): 10 to 100 nM; IC50 (FRK/PTK5): > 1000 nM; IC50 (LCK): 10 to 100 nM
Cc1ccc(-c2nn(CCN3CCC(CCN(C)C)CC3)c3ncnc(N)c23)cc1 [Compound 113, 1-[2-[4-(2-dimethylaminoethyl)-1-piperidyl]ethyl]-3-(p-tolyl)pyrazolo[3,4-d]pyrimidin-4-amine]	–	–	> 1000	> 1000	> 1000	IC50 (RET): > 1000 nM; IC50 (FGR): 100 to 1000 nM; IC50 (FRK/PTK5): > 1000 nM; IC50 (HCK): > 1000 nM; IC50 (LCK; [2]): > 1000 nM; IC50 (LYN): > 1000 nM
CN(C)CC1CCN(CCn2nc(-c3cnc4[nH]ccc4c3)c3c(N)ncnc32)CC1 [Compound 221, 1-[2-[4-(dimethylaminomethyl)-1-piperidyl]ethyl]-3-(1H-pyrrolo[2,3-b]pyridin-5-yl)pyrazolo[3,4-d]pyrimidin-4-amine]	–	–	> 1000	> 1000	> 1000	–
COc1cc(-c2nn(CCN3CCCC(N(C)C)C3)c3ncnc(N)c23)ccc1NC(=O)OC(C)(C)C (stereo not shown) [Compound 5-103, tert-butyl N-[4-[4-amino-1-[2-[3-(dimethylamino)-1-piperidyl]ethyl]pyrazolo[3,4-d]pyrimidin-3-yl]-2-methoxy-phenyl]carbamate]	1000 to 10000	–	–	–	–	–
COc1cc(-c2nn(CCN3CCC(N(C)C)CC3)c3ncnc(N)c23)ccc1NC(=O)Cc1ccccc1 [Compound 530, N-[4-[4-amino-1-[2-[4-(dimethylamino)-1-piperidyl]ethyl]pyrazolo[3,4-d]pyrimidin-3-yl]-2-methoxy-phenyl]-2-phenyl-acetamide]	> 10000	> 10000	–	–	–	EC50 [1]: > 10000 nM
COc1cc(-c2nn(CCN3CCC(N(C)C)CC3)c3ncnc(N)c23)ccc1NC(=O)CCc1ccccc1 [Compound 531, N-[4-[4-amino-1-[2-[4-(dimethylamino)-1-piperidyl]ethyl]pyrazolo[3,4-d]pyrimidin-3-yl]-2-methoxy-phenyl]-3-phenyl-propanamide]	> 10000	1000 to 10000	–	–	–	EC50 [1]: > 10000 nM
Cc1ccc(-c2nn(CCN3CCC(CN(C)C)CC3)c3ncnc(N)c23)cc1 [Compound 112, 1-[2-[4-(dimethylaminomethyl)-1-piperidyl]ethyl]-3-(p-tolyl)pyrazolo[3,4-d]pyrimidin-4-amine]	–	–	> 1000	> 1000	> 1000	IC50 (RET): > 1000 nM; IC50 (BLK): > 1000 nM; IC50 (FRK/PTK5): > 1000 nM; IC50 (HCK): > 1000 nM; IC50 (LCK; [2]): > 1000 nM; IC50 (LYN): > 1000 nM
Cc1ccc(-c2nn(CCN3CCN(CCN(C)C)CC3)c3ncnc(N)c23)cc1 [Compound 105, 1-[2-[4-(2-dimethylaminoethyl)piperazin-1-yl]ethyl]-3-(p-tolyl)pyrazolo[3,4-d]pyrimidin-4-amine]	–	–	> 1000	> 1000	> 1000	IC50 (ABL): > 1000 nM; IC50 (RET): > 1000 nM; IC50 (BLK): > 1000 nM; IC50 (FRK/PTK5): > 1000 nM; IC50 (HCK): > 1000 nM; IC50 (LCK; [2]): > 1000 nM
Cc1ccc(-c2nn(CCN3CCN(C)CC3)c3ncnc(N)c23)cc1 [Compound 103]	–	–	> 1000	> 1000	> 1000	IC50 (ABL): > 1000 nM; IC50 (RET): > 1000 nM; IC50 (BLK): > 1000 nM; IC50 (FRK/PTK5): > 1000 nM; IC50 (HCK): > 1000 nM; IC50 (LCK; [2]): > 1000 nM; IC50 (LYN): > 1000 nM
COc1cc(-c2nn(CCN3CCC(N(C)C)CC3)c3ncnc(N)c23)ccc1NC(=O)NC(C)(C)C [Compound 540, 1-[4-[4-amino-1-[2-[4-(dimethylamino)-1-piperidyl]ethyl]pyrazolo[3,4-d]pyrimidin-3-yl]-2-methoxy-phenyl]-3-tert-butyl-urea]	–	–	> 1000	> 1000	> 1000	IC50 (RET): > 1000 nM; IC50 (FGR): 10 to 100 nM; IC50 (FRK/PTK5): > 1000 nM; IC50 (LCK): 10 to 100 nM
CN(C)C1CCN(CCn2nc(-c3cnc4[nH]ccc4c3)c3c(N)ncnc32)CC1 [Compound 402, 1-[2-[4-(dimethylamino)-1-piperidyl]ethyl]-3-(1H-pyrrolo[2,3-b]pyridin-5-yl)pyrazolo[3,4-d]pyrimidin-4-amine]	–	–	> 1000	> 1000	> 1000	IC50 (HCK): > 1000 nM
COc1cc(-c2ccn(CCN3CCC(N(C)C)CC3)n2)ccc1NC(=O)OC(C)(C)C [Compound 597, tert-butyl N-[4-[1-[2-[4-(dimethylamino)-1-piperidyl]ethyl]pyrazol-3-yl]-2-methoxy-phenyl]carbamate]	> 10000	–	–	–	–	–
CN(C)C1CCN(CCn2nc(-c3ccc(NC(=O)OC(C)(C)C)nc3)c3c(N)ncnc32)CC1 [Compound 549, tert-butyl N-[5-[4-amino-1-[2-[4-(dimethylamino)-1-piperidyl]ethyl]pyrazolo[3,4-d]pyrimidin-3-yl]-2-pyridyl]carbamate]	> 10000	> 10000	–	–	–	–

More lines, main results first:

EC50 (MDA-MB-231 cells) [nM]	EC50 (MCF7 cells) [nM]	SMILES	IC50 (mTOR) [nM]	IC50 (PDGFRa) [nM]	IC50 (KIT) [nM]	other results
> 10000	> 10000	CN(C)C1CCN(CCn2nc(-c3cccc(NC(=O)OC(C)(C)C)c3)c3c(N)ncnc32)CC1 [Compound 542, tert-butyl N-[3-[4-amino-1-[2-[4-(dimethylamino)-1-piperidyl]ethyl]pyrazolo[3,4-d]pyrimidin-3-yl]phenyl]carbamate]	–	–	–	EC50 [1]: > 10000 nM
–	> 10000	CN(C)CC1CCN(CCn2nc(-c3ccc4ncccc4c3)c3c(N)ncnc32)CC1 [Compound 223, 1-[2-[4-(dimethylaminomethyl)-1-piperidyl]ethyl]-3-(6-quinolyl)pyrazolo[3,4-d]pyrimidin-4-amine]	–	–	–	–
–	> 10000	COc1ccc(-c2nn(CCN3CCC(CN(C)C)CC3)c3ncnc(N)c23)cc1OC [Compound 224, 3-(3,4-dimethoxyphenyl)-1-[2-[4-(dimethylaminomethyl)-1-piperidyl]ethyl]pyrazolo[3,4-d]pyrimidin-4-amine]	–	–	–	–
> 10000	–	CN(C)C1CCN(CCn2nc(-c3ccc(CC#N)cc3)c3c(N)ncnc32)CC1 [Compound 5-100, 2-[4-[4-amino-1-[2-[4-(dimethylamino)-1-piperidyl]ethyl]pyrazolo[3,4-d]pyrimidin-3-yl]phenyl]acetonitrile]	–	–	–	–
> 10000	> 10000	COc1ccc(-c2nn(CCN3CCC(N(C)C)CC3)c3ncnc(N)c23)cc1NC(=O)OC(C)(C)C [Compound 559, tert-butyl N-[5-[4-amino-1-[2-[4-(dimethylamino)-1-piperidyl]ethyl]pyrazolo[3,4-d]pyrimidin-3-yl]-2-methoxy-phenyl]carbamate]	–	–	–	–
–	> 10000	CN(C)CC1CCN(CCn2nc(-c3cccc(O)c3)c3c(N)ncnc32)CC1 [Compound 225, 3-[4-amino-1-[2-[4-(dimethylaminomethyl)-1-piperidyl]ethyl]pyrazolo[3,4-d]pyrimidin-3-yl]phenol]	–	–	–	–
–	> 10000	CN(C)CC1CCN(CCn2nc(-c3ccoc3)c3c(N)ncnc32)CC1 [Compound 226, 1-[2-[4-(dimethylaminomethyl)-1-piperidyl]ethyl]-3-(3-furyl)pyrazolo[3,4-d]pyrimidin-4-amine]	–	–	–	–
–	> 10000	CN(C)CC1CCN(CCn2nc(C#Cc3ccccc3)c3c(N)ncnc32)CC1 [Compound 230, 1-[2-[4-(dimethylaminomethyl)-1-piperidyl]ethyl]-3-(2-phenylethynyl)pyrazolo[3,4-d]pyrimidin-4-amine]	–	–	–	–
–	> 10000	CN(C)CC1CCN(CCn2nc(I)c3c(N)ncnc32)CC1 [Compound 232, 1-[2-[4 (dimethylaminomethyl)-1-piperidyl]ethyl]-3-iodo-pyrazolo[3,4-d]pyrimidin-4-amine]	–	–	–	–
